These are literature values, as cited in article PMC7997453 (Pharmaceuticals, 2021).

On the set-up of this series: method as in PMID 25028625. The settings on record: cited from earlier work.

As to `Clc1ccccc1C(c1ccccc1)(c1ccccc1)n1ccnc1` [Clotrimazole], the “inhibition on tacrolimus metabolism, CYP3A5 non-expresser patients versus expressers” value is listed as “significantly greater inhibition”.
